# Tests used:
# [1] = patients with mCRC, Amado et al. 2008; cited from earlier work
# RKO cells [2] = experiment: CellTiter-Glo cell viability assay in RKO cells (WT KRas, express HGF); format: cell-based; settings: FIG. 1A; 96 hours after treatment; gefitinib 5 μM, JNJ 38877605 1 μM, PD184161 0.01, 0.05 or 1 μM
# Description: Cell viability assays were conducted using the CellTiter-Glo® Luminescent Cell Viability Assay kit purchased from Promega Corporation (Madison, Wis., US) and used per the manufacturer's protocol. Cells were seeded in 96-well plates at a density of 1×10^4 cells per well and cell viability was assessed at the indicated time points.
# HCT116 cells [3] = experiment: CellTiter-Glo cell viability assay in HCT116 cells (MT KRas, express HGF); format: cell-based; settings: FIG. 2A; 96 hours after treatment; gefitinib 5 μM, JNJ 38877605 1 μM, PD184161 0.01 or 0.02 μM
# Description: Due to the presence of MT KRas, HCT116 cells have activated ERK signaling.
# HCT116 cells [4] = experiment: Clonogenic (colony formation) assay in HCT116 cells; format: cell-based; settings: FIG. 2B; 10 days after treatment; gefitinib 5 μM, JNJ 38877605 1 μM, PD184161 0.01 or 0.02 μM
# Description: HCT116 cells, which are MT KRas, were treated with gefitinib (5 μM) in the absence or presence of a MET kinase inhibitor (JNJ 38877605; 1 μM) or a MEKI kinase inhibitor (PD184161; 0.01 μM or 0.02 μM) as indicated.
# (§1) For clonogenic assay cells were seeded in 6-well plates at a density of 400 cells per well and were treated as indicated. After colony formation (8-12 days), cells were stained with crystal violet (0.5% w/v) (see Kueng W., et al., Anal Biochem (1989) 182: 16-19), and the number of colonies was determined using ImageQuant TL software (GE Healthcare Life Sciences, Pittsburgh, Pa., US).
# RKO cells [5] = experiment: Clonogenic (colony formation) assay in RKO cells; format: cell-based; settings: FIG. 1B; 10 days after treatment; gefitinib 5 μM, JNJ 38877605 1 μM, PD184161 0.01, 0.05 or 1 μM
# Description: as §1
# The effect of treatment with gefitinib alone or in combination with an inhibitor of MET kinase activity (using the inhibitor JNJ388777605) or inhibitor of MEK kinase activity (using the inhibitor PD184161) on viability and clonogenic growth was determined in RKO and HT29 cells.
# DiFi cells = experiment: Caspase-Glo 3/7 activity assay in DiFi cells with or without CCD-18Co fibroblast conditioned medium; format: cell-based; settings: FIG. 3C, 18 hr post-treatment; for caspase 3/7 activity (apoptosis), single agent: gefitinib 1 μM or JNJ 38877605 1 μM alone, no fibroblast conditioned media
# Description: Media were removed and replaced with serum-free MEM.
# ERK 1/2 = experiment: Western blot of ERK 1/2 phosphorylation in RKO cells; format: cell-based; settings: FIG. 1D, gefitinib dose or times post-treatment
# Description: Immunoblotting was performed using standard procedures. Nitrocellulose membranes (GE Healthcare Life Sciences, Pittsburgh, Pa.) were blocked with 5% non-fat milk for 1 hour at room temperature, and incubated with primary antibodies overnight at 4° C. Primary antibodies used were anti-p-ERK1/2 (Cell Signaling Technology, Inc., Danvers, Mass., US) and anti-β-actin (Sigma-Aldrich Co. LLC, Saint Louis, Mo., US). Following washing with TBS-T buffer, membranes were incubated with horseradish peroxidase-conjugated secondary antibodies for 1 hour and then washed with TBS-T. Immunoblots were developed using the Amersham Western Blotting ECL chemiluminescent reagents (GE Healthcare Life Sciences, Pittsburgh, Pa., US). Protein loading was normalized by probing blots for the expression of β-actin.
Compound,KRas WT patients who benefit [1] [%],effect on RKO cell viability (RKO cells [2]),effect on HCT116 cell viability (HCT116 cells [3]),effect on clonogenic growth (colony formation) of HCT116 cells (HCT116 cells [4]),effect on clonogenic growth (colony formation) of RKO cells (RKO cells [5]),"caspase 3/7 activity (apoptosis), single agent (DiFi cells)","caspase 3/7 activity (apoptosis) in the presence of fibroblast conditioned media (FIB) (DiFi cells; gefitinib 1 μM, JNJ 38877605 1 μM, CCD-18Co conditioned media)",phosphorylation status of ERK 1/2 (p-ERK 1/2 by Western blot) (ERK 1/2)
panitumumab,17,–,–,–,–,–,–,–
PD184161,–,no apparent effect on cell viability,no apparent effect on cell viability,no apparent effect on clonogenic growth,no apparent effect on clonogenic growth,–,–,–
Cn1cc(-c2ccc3nnc(C(F)(F)c4ccc5ncccc5c4)n3n2)cn1 [JNJ 38877605],–,no apparent effect on cell viability,no apparent effect on cell viability,no apparent effect on clonogenic growth,no apparent effect on clonogenic growth,no apparent effect on induction of caspases/apoptosis,–,–
COc1cc2ncnc(Nc3ccc(F)c(Cl)c3)c2cc1OCCCN1CCOCC1 [gefitinib],–,modest,modestly decreased cell viability,no apparent effect on clonogenic growth,no apparent effect on clonogenic growth,increase in caspase 3/7 activity,inhibit gefitinib-induced apoptosis,an increase in the amount of p-ERK 1/2

# Source: patent US20170027951A1, “METHODS AND COMPOSITIONS TO TREAT CANCERS INVOLVING EGFR” (Southern Research Institute, priority 2015, published 2017)
